Results reported in patent US4039550A, “Lower-alkyl (5-substituted-2-pyridyl)carbamodithioates” (Sterling Drug Inc., priority 1976, dated 1977).

What was measured:
N. dubius [1] = experiment: Anthelmintic screening in mice against N. dubius (roundworm), four-day medication; assay type: in vivo, Nematospiroides dubius in Swiss mice; conditions: 200 mg./kg./day p.o. for four days
Experimental: (§1) Anthelmintic activity was determined in mice against one species of roundworm (Nematospiroides dubius), one species of pinworm (Syphacia obvelata) and one species of tapeworm (Hymenolepis nana). The various test procedures used are described as follows: Swiss mice weighing approximately 20 grams were infected with approximately 20 larvae of N. dubius which were administered in 10% gelatin via stomach tube. For screening purposes, compounds, made up in 10% galatin, were administered via stomach tube in equally divided daily doses for four consecutive days beginning fourteen days after infection. Four days after the final medication, the animals were sacrificed and examined for the presence of worms. Efficacy against N. dubius was judged on the basis of percent worm reduction compared to control non-medicated mice. In addition, for the purpose of evaluation, the compounds were administered orally to a series of animals at graded doses, each animal receiving a single dose, and the results against N. dubius expressed in terms of an Effective Dose50 (ED50), the ED50 representing the dose necessary to remove 50% of the worm burden.
(§2) Data obtained in anthelmintic screening tests against the helminth infections, N. dubius (a), H. nana (b) and S. obvelata (c), are given in the table below. Results are expressed in terms of the percent of animals cleared at a standard dose of 200 mg./kg./day (p.o.) for four days; as percent of animals cleared at a single dose (S.D.) of 25 mg./kg.; or as an ED50 on single dose administration (ED50) against N. dubius.

S. obvelata = experiment: Anthelmintic screening in mice against S. obvelata (pinworm), four-day medication; assay type: in vivo, Syphacia obvelata in Swiss mice; conditions: 200 mg./kg./day p.o. for four days
Text: The same test procedures described above were used to assess the effectiveness of the compounds against S. obvelata, a naturally occurring pinworm infection in Swiss mice. Efficacy was judged by the percent of mice cleared of the infection compared to non-medicated control mice.
as §2

N. dubius [2] = experiment: Anthelmintic single-dose test in mice against N. dubius (S.D. and ED50); assay type: in vivo, Nematospiroides dubius in Swiss mice; conditions: for ED50: Heligmosomoides polygyrus, against N. dubius, single oral dose, dose necessary to remove 50% of the worm burden, read-out: ED50 on single dose administration
Experimental: as §1, §2

H. nana = experiment: Anthelmintic screening in mice against H. nana (tapeworm), four-day medication; assay type: in vivo, Hymenolepis nana in Swiss mice; conditions: 200 mg./kg./day p.o. for four days
Experimental: In tests against the tapeworm, H. nana, Swiss mice weighing approximately 20 grams were infected with approximately 12,000 ova of H. nana administered in 10% gelatin via stomach tube. The test compounds, made up in 10% gelatin, were administered via stomach tube in equally divided doses daily for four consecutive days beginning twelve days after infection. Four days after the final medication, the animals were sacrificed and examined for the presence of worms. Efficacy was judged by the percent of mice cleared compared to non-medicated control mice.
as §2

bacteria = conditions: Foye et al., J. Am. Pharm. Assoc. 47, 556-558 (1958); cited from earlier work

SMILES	% Cleared/200 mg./kg. (a) (N. dubius [1])	% Cleared/200 mg./kg. (c) (S. obvelata)	ED50 (N. dubius [2])	% Cleared/200 mg./kg. (b) (H. nana)	anti-bacterial activity (bacteria)	S.D. (percent of animals cleared at a single dose) (N. dubius [2]; single dose of 25 mg./kg., mice)
CSC(=S)Nc1ccc(Cl)cn1 [Example 1, methyl (5-chloro-2-pyridyl)carbamodithioate]	100%	40%	2 ± 0.917 mg/kg	80%		
CSC(=S)Nc1ccc(C)cn1 [Example 2, methyl (5-methyl-2-pyridyl)carbamodithioate]	100%	30%	7.75 ± 3.54 mg/kg	30%		
CCSC(=S)Nc1ccccn1 [Ethyl (2-pyridyl)-carbamodithioate]					active as an anti-bacterial agent	
CSC(=S)Nc1ccc(N(C)C)cn1 [Example 3, methyl (5-dimethylamino-2-pyridyl)carbamodithioate]	100%	0%		0%		64.5%
